# Assay results from PubChem BioAssay (NCI).
#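 Dose response: 5 concentrations. Exposure: 48 h. Format: 96-well plates. Endpoint: linear interpolation; highest concentration if not reached. Here, GI50 denotes the concentration required for 50% inhibition of growth. TGI: total growth inhibition.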 Where a SMILES comes first, the peptide text is derived from it. [ ]: non-standard residue; d: D form. ξ: configuration not given here. Pentanoyl(2-O,4-OH,5-Cl) = O=C(O)C(O)CC(O)CCl; Ile(3ξ) = CCC(C)[C@H](N)C(=O)O; NMeV = CN[C@H](C(=O)O)C(C)C; NMeA = CN[C@@H](C)C(=O)O; βAla = NCCC(=O)O
# What was measured:
# Assay in all cases: NCI tumour cell line growth inhibition, 48 h
# EKVX NSCLC = system: EKVX NSCLC
# SK-OV-3 ovarian = system: SK-OV-3 ovarian
# A549 NSCLC = system: A549 NSCLC
# IGROV1 ovarian = system: IGROV1 ovarian
# NCI-H23 lung = system: NCI-H23 lung
# CAKI-1 renal = system: CAKI-1 renal
# HCT-116 colon = system: HCT-116 colon
# COLO 205 colon = system: COLO 205 colon
# NCI/ADR-RES ovarian = system: NCI/ADR-RES ovarian
# HT29 colon = system: HT29 colon
Structure (SMILES),GI50 (EKVX NSCLC) [µM],TGI (EKVX NSCLC) [µM],GI50 (SK-OV-3 ovarian) [µM],TGI (SK-OV-3 ovarian) [µM],GI50 (A549 NSCLC) [µM],TGI (A549 NSCLC) [µM],GI50 (IGROV1 ovarian) [µM],TGI (IGROV1 ovarian) [µM],GI50 (NCI-H23 lung) [µM],TGI (NCI-H23 lung) [µM],GI50 (CAKI-1 renal) [µM],TGI (CAKI-1 renal) [µM],GI50 (HCT-116 colon) [µM],TGI (HCT-116 colon) [µM],GI50 (COLO 205 colon) [µM],TGI (COLO 205 colon) [µM],GI50 (NCI/ADR-RES ovarian) [µM],TGI (NCI/ADR-RES ovarian) [µM],GI50 (HT29 colon) [µM],TGI (HT29 colon) [µM]
COc1ccc(-c2nn3ncccc3c2-c2ccnc(Nc3ccc(F)c(F)c3)n2)cc1,5.06,> 22.7,10.5,> 25,7.52,> 25,8.47,24.5,11.5,> 25,7.65,> 23.4,7.15,> 25,15.5,> 25,8.27,> 25,5.43,> 25
COc1ccc(-c2cc(=O)c3c(C)ccnc3[nH]2)cc1,,> 100,,> 100,,> 100,,> 100,,65.2,,> 100,6.43,39.4,,16.4,,> 100,,40.5
CCN(CC)CCN1C(=O)C2C3C(C)=CC(OC(C)=O)(CC3C)C2C1=O (stereo not given),> 100,> 100,> 100,> 100,> 100,> 100,> 100,> 100,> 100,> 100,> 100,> 100,> 100,> 100,> 100,> 100,> 100,> 100,> 100,> 100
Clc1ccc2c(NC3CCC(NC4CCCCC4)CC3)ccnc2c1 (stereo not given),4.55,43,15.9,46.2,4.84,17.3,6.64,30.8,7.74,35.9,1.81,6.63,3.26,13.9,1.65,3.2,8.48,30.4,1.57,7.88
N#Cc1nc2cc(Cl)c(Cl)cc2nc1-c1ccc(Cl)cc1,> 100,> 100,> 48.3,> 80.5,13.8,> 46.6,73.2,> 100,> 60.5,> 100,34,> 66.8,15.8,29.9,> 76.3,> 100,> 42.2,> 83.4,> 100,> 100
"CCC(C)[C@@H]1NC(=O)[C@@H]2CCCN2C(=O)C(CC(O)CCl)OC(=O)CCNC(=O)[C@H](C)N(C)C(=O)[C@H](C(C)C)N(C)C1=O (stereo not given in full) (cyclo([Ile(3ξ)][NMeV][NMeA][βAla][Pentanoyl(2-O,4-OH,5-Cl)]P))",,> 100,,> 100,,> 100,,> 100,,> 100,,> 100,,> 100,,> 31.6,,> 100,,> 100
CN1CCN(c2ccc3nc(-c4[nH]ncc4Nc4ncnc5[nH]ccc45)[nH]c3c2)CC1,0.34,14.2,0.371,12.7,1.74,15,0.189,1.41,0.517,4.06,0.183,1.57,0.0665,,0.147,0.695,5.24,> 100,1.47,6.06
CC(NC(=O)c1ccc(Cl)c(Cl)c1)c1ccc(-c2ccccc2)cc1 (stereo not given),,> 100,,90.4,,45.5,,> 100,,> 100,,> 100,,> 100,,> 100,,> 100,,> 100
CC(C)Cn1cnc2c(N)nc3ccccc3c21,26.2,> 100,> 100,> 100,39.3,> 100,51.8,> 100,37.1,> 100,34.8,> 100,19.8,> 73.1,20.7,> 88.2,49,> 100,28.8,> 100
OC(c1ccccc1)c1c(-c2ccccc2)[nH]c(-c2ccccc2)c1C(O)c1ccccc1 (stereo not given),,13.9,,47.2,,18.9,,12,,16.5,,6.75,,8.83,,3.15,,8.02,,17.5
